{"source": "patent US20170307595A1", "about": "“METHODS AND DEVICES TO STUDY METABOLISM” (The General Hospital Corporation, priority 2014, published 2017)", "key": {"[1]": {"conditions": "cited from earlier work; for Cmax: oral uptake of tegafur-uracil (UFT)"}, "[2]": {"system": "rat primary hepatocytes", "assay": "Mass spectrometry of drug metabolism in single chamber device with hepatocytes alone", "conditions": "from tegafur+uracil", "from_the_text": "(§2) Tegafur, 5-FU, and Uracil concentrations in media were quantified using an LC/MS-MS 3200 QTRAP Hybrid Triple Quadrupole Linear Ion Trap mass spectrometer (AB SCIEX, Foster City, Calif.) coupled to a 1200 Series Binary LC System (Agilent Technologies, Santa Clara, Calif.). A standard solution of each analyte was directly infused into the mass spectrometer, which was operating under negative mode with the following settings: Curtain gas (CUR) at 30.0, collision gas (CAD) at 5, IonSpray Voltage (IS) at −4500.0, the temperature (TEM) of the turbo gas in the TurbolonSpray at 400° C. and both Ion Source Gases (GS1 and GS2) at 60.0. Using Analyst software (Version 1.5, AB Sciex), a ‘Compound Optimization’ routine was performed to identify multiple reaction monitoring (MRM) precursor/product ion transition pairs for each analyte that maximizes peak intensity. The tunable MS-specific parameters for the optimization were the declustering potential (DP), the entrance potential (EP), the collision energy (CE), as well as the collision cell exit potential (CXP).\n(§3) MS data acquisition for each sample was achieved by injecting 10 μL, of media through a liquid chromatographic (LC) separation phase followed by simultaneous detection of all three MRM transitions, each with a dwell time of 500 ms. The LC method utilized a Synergy Hydro-RP (reverse phase) column (150 mm×2 mm inner 4 μm 80 Å particles; Phenomenex, Torrance, Calif.), which was kept at ambient temperature. The aqueous mobile phase A was HPLC grade water with 0.1% formic acid and the organic phase B was HPLC grade methanol with 0.1% formic acid. The elution gradient was set as: 0 minutes-3% B, 3 minutes-3% B, 12 minutes-95% B, 15 minutes-95% B, 18 minutes-3% B, and 25 minutes-3% B."}, "[3]": {"system": "MCF-7 cells", "assay": "MTT toxicity experiment in 96-well plates, MCF-7", "assay_type": "cell-based, human", "procedure": "(§1) Toxicity experiments were performed in 96-well plates. Briefly, 96-well plates were coated with 50 μg/mL fibronectin for 1 hour at 37° C. Freshly isolated rat hepatocytes and MCF-7 cells were seeded at 50,000 cells/well in 100 μL of media and incubated overnight at 37° C., 10% CO2. Hepatocytes were seeded in hepatocyte maintenance media while MCF-7 cells were seeded in DMEM. Media was replaced and cells were exposed to tegafur or 5-FU+Uracil in Williams E media at 37° C., 10% CO2. Uracil concentration was maintained at 100 μM, while 5-FU concentration varied. After 24 hours of exposure, media were removed and cells were incubated with 0.5 mg/mL MTT reagent for 2 hours. Media were removed from the wells and 100 μL DMSO was added to each well and mixed on a shaker for 10 minutes. The absorbance was measured at 570 nm and IC-50 values were obtained using Sigmaplot software with a sigmoidal 4-parameter fit."}, "[4]": {"system": "MCF-7 cells co-cultured with rat primary hepatocytes", "assay": "LDH release, hepatocyte/MCF-7 co-culture in two-chamber microfluidic device", "assay_type": "cell-based, human", "conditions": "MCF-7 exposure to 5-FU produced by metabolic conversion of tegafur, 24 hours", "description": "Rat primary hepatocytes and human breast cancer cells (MCF-7) were co-cultured in the device of Example 1 to create a hepatocyte-cancer model for drug screening. In the two-chamber device, intercellular communication between hepatocytes and cancer cells is achieved without any flow within the devices. In the two-chamber device, both cell types were independently seeded into their respective chambers in the device using inlet ports on fibronectin-coated devices. Rat primary hepatocytes and MCF-7 cells were seeded into the first (bottom) and second (top) chambers, respectively. Control monocultures were seeded in a single chamber device. The co-culture model created provides a microenvironment with cells cultured in close proximity and relatively small volume. Co-culture of hepatocytes and MCF-7 cells was compared in 12-well plates against a two-chamber device. […]\nLDH in the supernatant was evaluated using CytoTox 96 Non-Radioactive Cytotoxicity Assay (Promega Cat No. G1780). […]\nAt the end of incubation, 50 μL stop solution was added and absorbance measured at 490 nm.\nLDH from culture supernatant is normalized as LDH from cultures exposed to 100 μM tegafur+100 μM uracil to LDH from cultures exposed to vehicle control. […] Percentage cell death was calculated as LDH in media/LDH in 10,000 MCF-7 cells."}, "[5]": {"system": "rat primary hepatocytes", "conditions": "24 h, 100 μM", "from_the_text": "as §2, §3"}, "[6]": {"system": "Rat hepatocytes", "assay": "MTT toxicity experiment in 96-well plates, rat hepatocytes", "assay_type": "cell-based", "procedure": "as §1"}, "[7]": {"conditions": "100 μM, inferred from IC-50 values"}}}
{"smiles": "O=c1[nH]cc(F)c(=O)[nH]1", "note": "[5-FU, 5-fluorouracil]", "values": [{"measurement": "half-life in circulation in the human body", "setting": "[1]", "result": 30, "unit": "min"}, {"measurement": "fraction of 5-FU produced cleared by DPD activity", "setting": "[1]; human", "result": "~80", "unit": "%"}, {"measurement": "Cmax", "setting": "[1]; human", "result": 0.847, "unit": "µM"}, {"measurement": "temporal profile of 5-FU production", "setting": "[2]", "result": "increase in production up to 8 hours and a subsequent decrease"}]}
{"smiles": "O=c1[nH]c(=O)n(C2CCCO2)cc1F", "note": "(stereo not drawn) [Tegafur]", "values": [{"measurement": "toxicity to MCF-7 cells at 100 μM", "setting": "[3]; [7]", "result": "not toxic"}, {"measurement": "IC50", "setting": "[3]; Homo sapiens, MCF7, MCF-7, 24 hours exposure, MTT, uracil 100 μM where present", "result": 340, "unit": "µM"}, {"measurement": "MCF-7 cell death (LDH in media/LDH in 10,000 MCF-7 cells)", "setting": "[4]", "result": "12.4±1.6", "unit": "%"}, {"measurement": "Cmax", "setting": "[1]; human", "result": 31.2, "unit": "µM"}, {"measurement": "decrease of concentration within the media", "setting": "[5]", "result": "~75", "unit": "%"}, {"measurement": "toxicity to hepatocytes at 100 μM", "setting": "[6]; [7]", "result": "not toxic"}, {"measurement": "IC50", "setting": "[6]; Hepatocyte, rat hepatocytes, 24 hours exposure, MTT, uracil 100 μM where present", "result": "> 1200", "unit": "µM"}]}
{"smiles": "O=c1cc[nH]c(=O)[nH]1", "note": "[uracil, Uracil]", "values": [{"measurement": "decrease of concentration within the media", "setting": "[5]", "result": "~75", "unit": "%"}]}
